Experimental findings from patent US20210369846A1 (priority 2018, published 2021) are described below.

Marks after values point to notes of the source that are not given here.

In data set [1] the test system is blood.
Data set [2] relates to HMEC-1 human vascular endothelial cells.
The subject of data set [3] is L929 mouse fibroblasts.

For `O=C(O)CCCC(=O)OCCC(F)(F)C(F)(F)C(F)(F)C(F)(F)C(F)(F)C(F)(F)C(F)(F)C(F)(F)F` [2l3l], the “Maximum Non-Hemolytic Concentration” value in data set [1] is over 2.00%. In addition, the “Maximum Non-Cytotoxic Concentration HMEC-1” value in data set [2] is recorded as over 1.00%. For the same molecule, the “Maximum Non-Cytotoxic Concentration L929” value in data set [3] is over 1.00%.

With `O=C(O)CCC(=O)OCCC(F)(F)C(F)(F)C(F)(F)C(F)(F)C(F)(F)C(F)(F)F` [2i3c], the “Maximum Non-Hemolytic Concentration” value in data set [1] worked out at 0.02%. For the same molecule, in data set [2], the “Maximum Non-Cytotoxic Concentration HMEC-1” value is 0.10** %. For the same molecule, the “Maximum Non-Cytotoxic Concentration L929” value in data set [3] is recorded as 0.10** %.

Regarding `O=C(O)CCC(=O)OCCC(F)(F)C(F)(F)C(F)(F)C(F)(F)C(F)(F)C(F)(F)F` [2i3l], the “Maximum Non-Hemolytic Concentration” value in data set [1] amounted to 0.05%. The “Maximum Non-Cytotoxic Concentration HMEC-1” value in data set [2] was 0.01** %. For the same molecule, the “Maximum Non-Cytotoxic Concentration L929” value in data set [3] is 0.01** %.

As for `O=C(O)CCCCCSCCC(F)(F)C(F)(F)C(F)(F)C(F)(F)C(F)(F)C(F)(F)C(F)(F)C(F)(F)F` [2c3k], the “Maximum Non-Hemolytic Concentration” value in data set [1] stood at 0.05%. For the same molecule, in data set [2], the “Maximum Non-Cytotoxic Concentration HMEC-1” value is reported as 1%. Moreover, the “Maximum Non-Cytotoxic Concentration L929” value in data set [3] came to 0.25%.

With `O=C(O)CCC(=O)OCCC(F)(F)C(F)(F)C(F)(F)C(F)(F)C(F)(F)C(F)(F)C(F)(F)C(F)(F)F` [2j3a], the “Maximum Non-Hemolytic Concentration” value in data set [1] was over 2.00%. In addition, the “Maximum Non-Cytotoxic Concentration HMEC-1” value in data set [2] is on record as 0.2%. Besides, in data set [3], the “Maximum Non-Cytotoxic Concentration L929” value was 0.2%.

As to `O=C(O)CC(F)(F)C(F)(F)C(F)(F)C(F)(F)C(F)(F)C(F)(F)F` [2p3c], the “Maximum Non-Hemolytic Concentration” value in data set [1] was found to be 0.25%. Further, in data set [2], the “Maximum Non-Cytotoxic Concentration HMEC-1” value is recorded as 0.1%. Further, the “Maximum Non-Cytotoxic Concentration L929” value in data set [3] worked out at 0.1%.

For `O=C(O)CCCC(=O)OCCC(F)(F)C(F)(F)C(F)(F)C(F)(F)C(F)(F)C(F)(F)F` [2k3l], the “Maximum Non-Hemolytic Concentration” value in data set [1] is listed as 0.05%. The “Maximum Non-Cytotoxic Concentration HMEC-1” value in data set [2] is under 0.25%. The “Maximum Non-Cytotoxic Concentration L929” value in data set [3] is reported as <0.25* %.

In the case of `O=C(O)CSCCC(F)(F)C(F)(F)C(F)(F)C(F)(F)C(F)(F)C(F)(F)C(F)(F)C(F)(F)F` [2a3c], the “Maximum Non-Hemolytic Concentration” value in data set [1] stood at 0.2%. Further, in data set [2], the “Maximum Non-Cytotoxic Concentration HMEC-1” value is given as 0.2%. Also, the “Maximum Non-Cytotoxic Concentration L929” value in data set [3] was 0.2%.

Take `O=C(O)CCCC(=O)OCCC(F)(F)C(F)(F)C(F)(F)C(F)(F)C(F)(F)C(F)(F)F` [2k3c]: in data set [1], the “Maximum Non-Hemolytic Concentration” value is listed as 0.05%. Also, the “Maximum Non-Cytotoxic Concentration HMEC-1” value in data set [2] was 0.10* %. Moreover, the “Maximum Non-Cytotoxic Concentration L929” value in data set [3] is 0.10* %.

With `O=C(O)CCCCCSCCC(F)(F)C(F)(F)C(F)(F)C(F)(F)C(F)(F)C(F)(F)C(F)(F)C(F)(F)F` [2c3e], the “Maximum Non-Hemolytic Concentration” value in data set [1] is 0.02%. Also, in data set [2], the “Maximum Non-Cytotoxic Concentration HMEC-1” value turned out to be 1%. Further, in data set [3], the “Maximum Non-Cytotoxic Concentration L929” value is given as 0.5%.

Regarding `O=C(O)CCC(=O)OCCC(F)(F)C(F)(F)C(F)(F)C(F)(F)C(F)(F)C(F)(F)F` [2i2i3h], the “Maximum Non-Hemolytic Concentration” value in data set [1] was determined as 0.05%. Moreover, the “Maximum Non-Cytotoxic Concentration HMEC-1” value in data set [2] is reported as 0.1%. Moreover, the “Maximum Non-Cytotoxic Concentration L929” value in data set [3] was found to be 0.1%.

Take `O=C(O)CSCCC(F)(F)C(F)(F)C(F)(F)C(F)(F)C(F)(F)C(F)(F)C(F)(F)C(F)(F)F` [2a3a]: in data set [1], the “Maximum Non-Hemolytic Concentration” value is on record as 0.05%. Further, in data set [2], the “Maximum Non-Cytotoxic Concentration HMEC-1” value is 1%. The “Maximum Non-Cytotoxic Concentration L929” value in data set [3] stood at 0.5%.

For the molecule `O=C(O)CSCCC(F)(F)C(F)(F)C(F)(F)C(F)(F)C(F)(F)C(F)(F)C(F)(F)C(F)(F)F` [2a3f], the “Maximum Non-Hemolytic Concentration” value in data set [1] is on record as over 2.00%. Also, the “Maximum Non-Cytotoxic Concentration HMEC-1” value in data set [2] is recorded as 0.2%. In addition, the “Maximum Non-Cytotoxic Concentration L929” value in data set [3] amounted to 0.2%.

Turning to `O=C(O)CCCC(=O)OCCC(F)(F)C(F)(F)C(F)(F)C(F)(F)C(F)(F)C(F)(F)F` [2k3e], the “Maximum Non-Hemolytic Concentration” value in data set [1] stood at 0.05%. In addition, in data set [2], the “Maximum Non-Cytotoxic Concentration HMEC-1” value is listed as 0.01* %. In data set [3], the “Maximum Non-Cytotoxic Concentration L929” value was 0.10* %.

With `O=C(O)CCC(=O)OCCC(F)(F)C(F)(F)C(F)(F)C(F)(F)C(F)(F)C(F)(F)C(F)(F)C(F)(F)F` [2j3k], in data set [1], the “Concentrations with no hemolytic properties” value is recorded as at most 1% and the “Maximum Non-Hemolytic Concentration” value was 1%. Moreover, the “Maximum Non-Cytotoxic Concentration HMEC-1” value in data set [2] was found to be 0.5%. The “Maximum Non-Cytotoxic Concentration L929” value in data set [3] is recorded as 0.50* %.

Turning to `O=C(O)CSCCC(F)(F)C(F)(F)C(F)(F)C(F)(F)C(F)(F)C(F)(F)C(F)(F)C(F)(F)F` [2a3e], the “Maximum Non-Hemolytic Concentration” value in data set [1] is 0.25%. The “Maximum Non-Cytotoxic Concentration HMEC-1” value in data set [2] was 0.2%. For the same molecule, in data set [3], the “Maximum Non-Cytotoxic Concentration L929” value came to 0.2%.

`O=C(O)CCC(=O)OCCC(F)(F)C(F)(F)C(F)(F)C(F)(F)C(F)(F)C(F)(F)C(F)(F)C(F)(F)F` [2j3l]: the “Maximum Non-Hemolytic Concentration” value in data set [1] is listed as over 2.00%. For the same molecule, the “Maximum Non-Cytotoxic Concentration HMEC-1” value in data set [2] is given as 1%. In data set [3], the “Maximum Non-Cytotoxic Concentration L929” value is reported as 0.10** %.

With `O=C(O)C(CCC(F)(F)C(F)(F)C(F)(F)C(F)(F)C(F)(F)C(F)(F)C(F)(F)C(F)(F)F)C(=O)O` [2s3e], the “Maximum Non-Hemolytic Concentration” value in data set [1] was found to be 0.1%. For the same molecule, in data set [2], the “Maximum Non-Cytotoxic Concentration HMEC-1” value is 0.25%. Moreover, in data set [3], the “Maximum Non-Cytotoxic Concentration L929” value is 0.25%.

As for `O=C(O)CCC(=O)OCCC(F)(F)C(F)(F)C(F)(F)C(F)(F)C(F)(F)C(F)(F)F` [2i3e], the “Maximum Non-Hemolytic Concentration” value in data set [1] was 0.05%. Moreover, the “Maximum Non-Cytotoxic Concentration HMEC-1” value in data set [2] is on record as 0.10** %. Also, the “Maximum Non-Cytotoxic Concentration L929” value in data set [3] is 0.20** %.

For the molecule `O=C(O)CCC(=O)OCCC(F)(F)C(F)(F)C(F)(F)C(F)(F)C(F)(F)C(F)(F)C(F)(F)C(F)(F)F` [2j2j3h], the “Maximum Non-Hemolytic Concentration” value in data set [1] is on record as over 2.00%. For the same molecule, the “Maximum Non-Cytotoxic Concentration HMEC-1” value in data set [2] is on record as 1%. Also, in data set [3], the “Maximum Non-Cytotoxic Concentration L929” value is reported as 0.25** %.

Turning to `O=C(O)CCCC(=O)OCCC(F)(F)C(F)(F)C(F)(F)C(F)(F)C(F)(F)C(F)(F)F` [2k3k], the “Maximum Non-Hemolytic Concentration” value in data set [1] is 0.05%. The “Maximum Non-Cytotoxic Concentration HMEC-1” value in data set [2] is 0.10** %. The “Maximum Non-Cytotoxic Concentration L929” value in data set [3] is 0.20** %.

For `O=C(O)CCC(=O)OCCC(F)(F)C(F)(F)C(F)(F)C(F)(F)C(F)(F)C(F)(F)F` [2i3k], the “Maximum Non-Hemolytic Concentration” value in data set [1] stood at 0.1%. Besides, the “Maximum Non-Cytotoxic Concentration HMEC-1” value in data set [2] is on record as 0.1%. The “Maximum Non-Cytotoxic Concentration L929” value in data set [3] stood at 0.1%.

Take `O=C(O)CCCCCSCCC(F)(F)C(F)(F)C(F)(F)C(F)(F)C(F)(F)C(F)(F)C(F)(F)C(F)(F)F` [2c3f]: in data set [1], the “Concentrations with hemolytic properties” value is reported as “above 0.05%” and the “Maximum Non-Hemolytic Concentration” value came out at 0.01%. For the same molecule, in data set [2], the “Maximum Non-Cytotoxic Concentration HMEC-1” value amounted to 1%. Further, in data set [3], the “Maximum Non-Cytotoxic Concentration L929” value is recorded as under 0.25%.

For `O=C(O)CCCCCSCCC(F)(F)C(F)(F)C(F)(F)C(F)(F)C(F)(F)C(F)(F)C(F)(F)C(F)(F)F` [2c3c], in data set [1], the “Maximum Non-Hemolytic Concentration” value is reported as 0.25%. Also, the “Maximum Non-Cytotoxic Concentration HMEC-1” value in data set [2] was 0.5%. Moreover, the “Maximum Non-Cytotoxic Concentration L929” value in data set [3] was 0.25%.

In the case of `O=C(O)CCCCCSCCC(F)(F)C(F)(F)C(F)(F)C(F)(F)C(F)(F)C(F)(F)C(F)(F)C(F)(F)F` [2c3a], the “Maximum Non-Hemolytic Concentration” value in data set [1] was found to be 0.02%. Further, the “Maximum Non-Cytotoxic Concentration HMEC-1” value in data set [2] was 0.5%. For the same molecule, the “Maximum Non-Cytotoxic Concentration L929” value in data set [3] came to 0.5%.

Turning to `O=C(O)CC(F)(F)C(F)(F)C(F)(F)C(F)(F)C(F)(F)C(F)(F)F` [2p3e], the “Maximum Non-Hemolytic Concentration” value in data set [1] came out at 0.25%. Further, the “Maximum Non-Cytotoxic Concentration HMEC-1” value in data set [2] worked out at 0.25%. In addition, the “Maximum Non-Cytotoxic Concentration L929” value in data set [3] stood at 0.1%.

For `O=C(O)CCCC(=O)OCCC(F)(F)C(F)(F)C(F)(F)C(F)(F)C(F)(F)C(F)(F)C(F)(F)C(F)(F)F` [2l3c], the “Maximum Non-Hemolytic Concentration” value in data set [1] is over 2.00%. Moreover, in data set [2], the “Maximum Non-Cytotoxic Concentration HMEC-1” value worked out at 0.5%. The “Maximum Non-Cytotoxic Concentration L929” value in data set [3] was 0.5%.

On to `O=C(O)CCCCCSCCC(F)(F)C(F)(F)C(F)(F)C(F)(F)C(F)(F)C(F)(F)C(F)(F)C(F)(F)F` [2c3l], for which the “Maximum Non-Hemolytic Concentration” value in data set [1] came out at 0.02%. In addition, the “Maximum Non-Cytotoxic Concentration HMEC-1” value in data set [2] came out at 0.5%. Besides, the “Maximum Non-Cytotoxic Concentration L929” value in data set [3] is 0.25* %.
